According to patent publication US20150105252A1, “SUBSTITUTED PYRAZOLES AS HERBICIDES” (E I DU PONT DE NEMOURS AND COMPANY, priority 2013, published 2015):

Assays:
crabgrass, large [1] = experiment: Test C preemergence; type: in vivo, Digitaria sanguinalis; settings: for Plant response rating (scale of 0 to 100), Crabgrass, Large: Preemergence, 250 g ai/ha
How it was run: (§1)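 Greenhouse pot test: preemergence application onto freshly seeded loam/sand mix, postemergence application onto seedlings (1–4 leaves, 2–18 cm) in peat-vermiculite substrate. Responses scored visually 13 to 15 days later relative to controls, where 0 means no effect and 100 means complete control; a dash indicates no result.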

nutsedge, yellow [2] = experiment: Test C preemergence; type: in vivo, Cyperus esculentus; settings: for Plant response rating (scale of 0 to 100), Nutsedge, Yellow: Preemergence, 250 g ai/ha
How it was run: as §1

oilseed rape = experiment: Test C preemergence; type: in vivo, Brassica napus; settings: for Plant response rating (scale of 0 to 100), Oilseed Rape: Preemergence, 250 g ai/ha
How it was run: as §1

morningglory [3] = experiment: Test C preemergence; type: in vivo, Ipomoea coccinea; settings: for Plant response rating (scale of 0 to 100), Morningglory: Preemergence, 250 g ai/ha
How it was run: as §1

barnyardgrass [4] = experiment: Test C preemergence; type: in vivo, Echinochloa crus-galli; settings: for Plant response rating (scale of 0 to 100), Barnyardgrass: Preemergence, 250 g ai/ha
How it was run: as §1

ducksalad = experiment: Test B flood; type: in vivo, Heteranthera limosa; settings: 250 g ai/ha, visual rating on 0 to 100 scale (0 no effect, 100 complete control), 13 to 15 days
How it was run: (§2)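 Plants were grown to the 2-leaf stage, then pots were flooded to 3 cm above the soil and compounds were applied directly into the paddy water. Water depth was held for the whole test; after 13 to 15 days in a greenhouse, injury was visually rated against untreated controls (0 = no effect, 100 = complete control).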

morningglory [5] = experiment: Test A postemergence; type: in vivo, Ipomoea spp.
How it was run: (§3)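 Both timings tested concurrently in loam/sand soil: preemergence by directed soil spray, postemergence on plants of 2–10 cm at the one- to two-leaf stage. Greenhouse holding period was approximately 10 days before visual injury assessment (0–100, 0 = no effect).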

nutsedge, yellow [6] = experiment: Test C postemergence; type: in vivo, Cyperus esculentus; settings: for Plant response rating (scale of 0 to 100 where 0 is no effect and 100 is complete control), Nutsedge, Yellow: Postemergence, 31 g ai/ha, visually evaluated after 13 to 15 days; for Nutsedge, Yellow plant response rating / Plant response rating, Nutsedge, Yellow: postemergence; for Nutsedge, Yellow plant response rating: 62 g ai/ha, scale 0 to 100
How it was run: as §1

crabgrass, large [7] = experiment: Test A preemergence; type: in vivo, Digitaria sanguinalis; settings: preemergence
How it was run: as §3

barnyardgrass [8] = experiment: Test A postemergence; type: in vivo, Echinochloa crus-galli
How it was run: as §3

chickweed = experiment: Test C postemergence; type: in vivo, Stellaria media; settings: for Plant response rating (scale of 0 to 100 where 0 is no effect and 100 is complete control), Chickweed: Postemergence, 31 g ai/ha, visually evaluated after 13 to 15 days; for Chickweed plant response rating / Plant response rating, Chickweed: postemergence; for Chickweed plant response rating: 62 g ai/ha, scale 0 to 100
How it was run: as §1

velvetleaf = experiment: Test C preemergence; type: in vivo, Abutilon theophrasti; settings: for Plant response rating (scale of 0 to 100), Velvetleaf: Preemergence, 250 g ai/ha
How it was run: as §1

rice = experiment: Test B flood; type: in vivo, Oryza sativa; settings: 250 g ai/ha, visual rating on 0 to 100 scale (0 no effect, 100 complete control), 13 to 15 days
How it was run: as §2

[9] = preemergence, 31 g ai/ha, visual rating, scale 0 to 100 (0 no effect, 100 complete control), 13 to 15 days
[10] = preemergence, 62 g ai/ha, scale 0 to 100 (0 no effect, 100 complete control), 13 to 15 days
[11] = preemergence, 125 g ai/ha, scale 0 to 100, 0 is no effect, 100 is complete control
[12] = preemergence, 31 g ai/ha, scale 0 to 100 (0 no effect, 100 complete control), 13 to 15 days
[13] = Postemergence, 500 g ai/ha, visual rating after approx. 10 days, 0 to 100 scale (0 no effect, 100 complete control)
[14] = postemergence, 125 g ai/ha, about 10 days, visual rating on 0 to 100 scale (0 no effect, 100 complete control)
[15] = 250 g ai/ha, scale 0 to 100 (0 no effect, 100 complete control)
[16] = 125 g ai/ha, scale 0 to 100, 0 no effect, 100 complete control
[17] = 125 g ai/ha, visual injury, 0 to 100 scale, approx. 10 days
[18] = 500 g ai/ha, visual injury after approx. 10 days, 0 to 100 scale (0 no effect, 100 complete control)
[19] = preemergence, 125 g ai/ha, 13 to 15 days, scale 0 to 100, 0 = no effect, 100 = complete control
[20] = Postemergence, 500 g ai/ha, 0 to 100 scale (0 no effect, 100 complete control)

| Compound | Plant response rating (scale of 0 to 100), Crabgrass, Large (crabgrass, large [1]) | Crabgrass, Large plant response rating (crabgrass, large [1]; [9]) | Crabgrass, Large plant response rating (crabgrass, large [1]; [10]) | Plant response rating (scale of 0 to 100), Nutsedge, Yellow (nutsedge, yellow [2]) | Nutsedge, Yellow plant response rating (nutsedge, yellow [2]; [9]) | Nutsedge, Yellow plant response rating (nutsedge, yellow [2]; [10]) | Plant response rating (scale of 0 to 100), Oilseed Rape (oilseed rape) | Oilseed Rape plant response rating (oilseed rape; [9]) | Oilseed Rape plant response rating (oilseed rape; [10]) | Plant response rating (scale of 0 to 100), Morningglory (morningglory [3]) | Morningglory plant response rating (morningglory [3]; [9]) | Morningglory plant response rating (morningglory [3]; [10]) | Plant response rating (scale of 0 to 100), Barnyardgrass (barnyardgrass [4]) | Barnyardgrass plant response rating (barnyardgrass [4]; [12]) | Barnyardgrass plant response rating (barnyardgrass [4]; [10]) | Plant response rating, Ducksalad (ducksalad) | Morningglory plant response rating (morningglory [5]; [14]) | Plant response rating (scale of 0 to 100 where 0 is no effect and 100 is complete control), Nutsedge, Yellow (nutsedge, yellow [6]) | Nutsedge, Yellow plant response rating (nutsedge, yellow [6]) | Plant response rating, Nutsedge, Yellow (nutsedge, yellow [6]; [15]) | other results |
| --- | --- | --- | --- | --- | --- | --- | --- | --- | --- | --- | --- | --- | --- | --- | --- | --- | --- | --- | --- | --- | --- |
| CCCNC(=O)c1cc(CC)n(Cc2nc(C(F)(F)F)nn2C)n1 [Compound 109] | 100 | 90 | 100 | 60 | 5 | 25 | 100 | 40 | 100 | 100 | 95 | 100 | 100 | 100 | 100 | 0 | 90 | 0 | 5 | 5 | Crabgrass, Large plant response rating (crabgrass, large [1]; [11]): 100; Nutsedge, Yellow plant response rating (nutsedge, yellow [2]; [11]): 40; Oilseed Rape plant response rating (oilseed rape; [11]): 100; Morningglory plant response rating (morningglory [3]; [11]): 100; Barnyardgrass plant response rating (barnyardgrass [4]; [11]): 100; Morningglory plant response rating (morningglory [5]; [13]): 100; Plant response rating, Nutsedge, Yellow (nutsedge, yellow [6]; [16]): 5; Crabgrass, Large plant response rating (crabgrass, large [7]; [17]): 100; Crabgrass, Large plant response rating (crabgrass, large [7]; [18]): 100; Barnyardgrass plant response rating (barnyardgrass [8]; [13]): 90; Barnyardgrass plant response rating (barnyardgrass [8]; [14]): 90; Plant response rating (scale of 0 to 100 where 0 is no effect and 100 is complete control), Chickweed (chickweed): 40; Chickweed plant response rating (chickweed): 50; Plant response rating, Chickweed (chickweed; [15]): 65; Plant response rating, Chickweed (chickweed; [16]): 55; Plant response rating (scale of 0 to 100), Velvetleaf (velvetleaf): 100; Velvetleaf plant response rating (velvetleaf; [9]): 10; Velvetleaf plant response rating (velvetleaf; [10]): 80; Velvetleaf plant response rating (velvetleaf; [11]): 100; Plant response rating, Rice (rice): 0 |
| CCONC(=O)c1cc(CC)n(Cc2ccnc(OC(F)F)c2)n1 [Compound 131] | 100 | 90 | 100 | 90 | 45 | 50 | 100 | 95 | 100 | 100 | 40 | 100 | 100 | 55 | 95 | 90 | 90 | 5 | 5 | 20 | Plant response rating, Crabgrass, Large (crabgrass, large [1]; [19]): 100; Plant response rating, Nutsedge, Yellow (nutsedge, yellow [2]; [19]): 95; Plant response rating, Oilseed Rape (oilseed rape; [19]): 98; Plant response rating, Morningglory (morningglory [3]; [19]): 100; Plant response rating, Barnyardgrass (barnyardgrass [4]; [19]): 100; Morningglory plant response rating (morningglory [5]; [20]): 100; Plant response rating, Nutsedge, Yellow (nutsedge, yellow [6]; [16]): 10; Crabgrass, Large plant response rating (crabgrass, large [7]; [17]): 100; Crabgrass, Large plant response rating (crabgrass, large [7]; [18]): 100; Barnyardgrass plant response rating (barnyardgrass [8]; [20]): 90; Barnyardgrass plant response rating (barnyardgrass [8]; [14]): 80; Plant response rating (scale of 0 to 100 where 0 is no effect and 100 is complete control), Chickweed (chickweed): 70; Chickweed plant response rating (chickweed): 70; Plant response rating, Chickweed (chickweed; [15]): 80; Plant response rating, Chickweed (chickweed; [16]): 70; Plant response rating (scale of 0 to 100), Velvetleaf (velvetleaf): 100; Velvetleaf plant response rating (velvetleaf; [9]): 25; Velvetleaf plant response rating (velvetleaf; [10]): 80; Plant response rating, Velvetleaf (velvetleaf; [19]): 100; Plant response rating, Rice (rice): 40 |
